For one experiment, the target named is T1, SH2 domain of Grb2 (Homo sapiens, UniProt P62993).
T1 construct: as a model system, the bare SH2 domain (14.3 kDa) has been chosen; made in house
Kind of experiment: Experiment 1: titration of SH2 against constant 0.4 nM pTyr-Val-Asn-Val-Lys(Cy5), confocal fluorescence fluctuation measurement (FIMDA, FCS, FIDA), hyperbolic fit of fraction bound. The following applies: 0.4 nM conjugate, same buffer, T=20° C., read-out: binding constant KD for the SH2-phosphopeptide interaction. An excerpt: The central optical part of the present FIMDA experiment is a confocal microscope as it is used in fluorescence correlation spectroscopy (Koppel et al., Biophys. J. 16: 1315-1329, 1976: Rigler et al., Eur. Biophys. J. 22: 169-175, 1993). For the excitation of fluorescence, a beam from a continuous wave laser is attenuated to ˜800 μW by neutral density filters, passes a beam expander, and is directed to the microscope objective (UApo/340, 40x, N.A. 1.15, Olympus Optical Co. Ltd., Tokyo, Japan) by a dichroic mirror. Fluorescence is collected by the said objective through the dichroic mirror, a spectral band-pass filter, and is focused to a confocal pinhole, which serves to reject the out-of-focus light. The light, which passes the pinhole, is detected by a silicon photon counting module (SPCM-AQ-131, EG&G Optoelectronics, Vaudreuil, Canada). […]
A series of simultaneously measured or simulated distributions is globally fitted using a Marquardt algorithm. […] Theoretical distributions are calculated using exactly the same algorithm as in FIDA, except that each species has an individual apparent concentration and an apparent brightness at each time window, calculated according to Eqs. […]

Experiment [1] addresses T2, SH2-domain of the adapter protein Grb2 (Homo sapiens, UniProt P62993).
T2 construct: as a model system, the bare SH2 domain (14.3 kDa) has been chosen; made in house
Description: Experiment 2: titration of SH2 against constant 0.8 nM pTyr-Val-Asn-Val-Lys(Cy5), FCS, FIDA and FIMDA data collected simultaneously. The following applies: 0.8 nM conjugate, T=20° C. The format is binding. On the procedure:
Since the diffusion time of the dye is […] (compared to 40 μs) it spends only a short time in the confocal volume and its apparent brightness decreases. From this information the diffusion time can be calculated from a global fit.
The viability of the present invention was tested by measurements characterizing a ligand-protein interaction. The minimal peptide sequence pTyr-Val-Asn (originating from tyrosine kinase growth factor receptors) binds to the SH2-domain of the adapter protein Grb2. The conjugate pTyr-Val-Asn-Val-Lys(Cy5) was synthesized as binding partner for SH2. All measurements were performed under identical conditions (e.g. same buffer: sterile filter water, 50 mM Na-phosphate buffer pH 7.8, 50 mM NaCl and 0.05% Pluronic; T=20° C.). To obtain the KD value for the ligand protein interaction a titration experiment was carried out. The pTyr-Val-Asn-Val-Lys(Cy5) concentration was kept constant at 0.8 nM, while SH2 was subject to titration (0.01, 0.03, 0.1, 0.3, 1, 3, 10, 30, 100, and 130 μM). Each sample was measured 30 times keeping the acquisition time at 30 seconds per measurement. FCS (prior art), FIDA (prior art) and FIMDA (present invention) data were collected simultaneously in order to compare all three methods. It becomes clear that FIMDA is able to resolve both, the specific brightness and the diffusion time of both species (ligand and complex). Therefore, FIMDA is a more versatile tool than FCS or FIDA and will save assay development time. Comparing the standard deviations of all methods in determining brightness and diffusion time FIMDA is better or at least as good as FCS or FIDA.

The structures appear in SMILES notation. Like-named read-outs stand apart in the source and are kept apart here. Square brackets hold non-standard residues; d marks the D form. Peptide text beside a SMILES is read from it. * marks the point of attachment. X1 = CC[N+]1=C(C=CC=CC=C2N(CCCCCC(=O)*)c3ccc(S(=O)(=O)O)cc3C2(C)C)C(C)(C)c2cc(S(=O)(=O)[O-])ccc21; pY = N[C@@H](Cc1ccc(OP(=O)(O)O)cc1)C(=O)O

As a reminder, the Kd is a measure of binding affinity in units of concentration.

T2 sequence (P62993 60-152 limits assumed): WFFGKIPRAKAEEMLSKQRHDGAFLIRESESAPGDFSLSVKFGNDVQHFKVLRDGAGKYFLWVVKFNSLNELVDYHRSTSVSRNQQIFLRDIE
T1 sequence (P62993 60-152 limits assumed): as above

`CC[N+]1=C(C=CC=CC=C2N(CCCCCC(=O)NCCCC[C@H](NC(=O)[C@@H](NC(=O)[C@H](CC(N)=O)NC(=O)[C@@H](NC(=O)[C@@H](N)Cc3ccc(OP(=O)(O)O)cc3)C(C)C)C(C)C)C(=O)O)c3ccc(S(=O)(=O)O)cc3C2(C)C)C(C)(C)c2cc(S(=O)(=O)[O-])ccc21` [pTyr-Val-Asn-Val-Lys(Cy5)] (H-[pY]VNVK(X1)-OH; N-terminus and C-terminus assumed): the Kd on SH2 domain of Grb2 (FCS) worked out at 2160 ± 190 nM; on SH2 domain of Grb2 (FIDA), 1600 ± 190 nM; in experiment [1] (FCS, same buffer) it was 2260 ± 280 nM; in experiment [1] (FIDA, same buffer), 1700 ± 290 nM; in experiment [1] (FIMDA, 50 mM Na-phosphate buffer pH 7.8, 50 mM NaCl, 0.05% Pluronic), 1680 ± 270 nM.

These data come from patent US6965113B2, “Fluorescence intensity multiple distributions analysis: concurrent determination of diffusion times and molecular brightness” (Evotec AG, priority 2000, dated 2005).
